Test results published in paper PMC7221574 (Molecules, 2020).
Several values for one entry are separate records, joined by “and”; a condition that tells them apart may be missing. Equal values may be shown once. Read-outs that look alike come from different tables or passages of the source.

Assays:
[1] = system: A549; assay: In vitro antiproliferative activity, SRB assay, A549; assay type: cell-based, human; conditions: human lung adenocarcinoma, 72 h, SRB, mean ± SD
Description: (§1) The A549 cell line was purchased from the European Collection of Authenticated Cell Cultures (ECACC, Salisbury, UK). The MCF-7, LoVo and LoVo/DX cell lines was purchased from American Type Culture Collection (ATCC, Manassas, VA, USA). All the cell lines are maintained in the Institute of Immunology and Experimental Therapy (IIET), Wroclaw, Poland.
(§2) Human lung adenocarcinoma cell line was cultured in a mixture of OptiMEM and RPMI 1640 (1:1) medium (IIET, Wroclaw, Poland), supplemented with 5% fetal bovine serum HyClone (GE Healthcare, USA) and 2 mM L-glutamine (Sigma-Aldrich, Germany). Human breast adenocarcinoma cell line was cultured in a mixture of Eagle medium (IIET, Wroclaw, Poland), supplemented with 10% fetal bovine serum, 2 mM L-glutamine, 8 μg/mL insulin and 1% amino acids (Sigma-Aldrich, Germany). Human colon adenocarcinoma cell lines were cultured in a mixture of OptiMEM and RPMI 1640 (1:1) medium (IIET, Wroclaw, Poland), supplemented with 5% fetal bovine serum HyClone (GE Healthcare, USA), 2 mM L-glutamine, 1 mM sodium pyruvate (Sigma-Aldrich, Germany) and 10 μg/100 mL doxorubicin (Accord) for LoVo/DX. Murine embryonic fibroblast cells were cultured in Dulbecco medium (Gibco), supplemented with 10% fetal bovine serum (GE Healthcare, USA) and 2 mM L-glutamine (Sigma-Aldrich, Germany). All culture media contained antibiotics: 100 U/mL penicillin (Polfa-Tarchomin, Poland) and 0.1 mg/mL streptomycin (Sigma Aldrich, Germany). All cell lines were cultured during entire experiment in humid atmosphere at 37 °C and 5% CO2.
(§3) All cell lines were exposed to each tested agent at different concentrations in the range 100–0.001 μg/mL for 72 h. The cells were also exposed to the reference drug cisplatin (Teva Pharmaceuticals, Poland) and doxorubicin (Accord Healthcare Limited, UK). Additionally, all cell lines were exposed to DMSO (solvent used for tested compounds) (POCh, Poland) at concentrations corresponding to those present in dilutions of tested agents. After 72 h sulforhodamine B assay (SRB) was performed.
(§4) After 72 h of incubation with the tested compounds, the cells were fixed in situ by gently adding of 50 μL per well of cold 50% trichloroacetic acid TCA (POCh, Poland) and were incubated at room temperature for one hour. Then the wells were washed four times with water and air dried. Next, 50 μL of 0.1% solution of sulforhodamine B (Sigma-Aldrich, Germany) in 1% acetic acid (POCh, Poland) were added to each well and were incubated at room temperature for 0.5 h. After incubation time, unbound dye was removed by washing plates four times with 1% acetic acid, whereas the stain bound to cells was solubilized with 150 μL of 10 mM Tris base (Sigma-Aldrich, Germany). Absorbance of each solution was read from a Synergy H4 Hybrid Multi-Mode Microplate Reader (BioTek Instruments, USA) at the 540 nm wavelength.

[2] = system: MCF-7; assay: In vitro antiproliferative activity, SRB assay, MCF-7; assay type: cell-based, human; conditions: for IC50: human breast adenocarcinoma, 72 h, SRB, mean ± SD; for selectivity index (SI) MCF-7: SI = (IC50 BALB/3T3)/(IC50 MCF-7)
Description: as §1, §2, §3, §4

[3] = system: LoVo; assay: In vitro antiproliferative activity, SRB assay, LoVo; assay type: cell-based, human; conditions: for IC50: 72 h, human colon adenocarcinoma, SRB, mean ± SD
Description: as §1, §2, §3, §4

[4] = system: LoVo/DX; assay: cells; assay type: cell-based, human; conditions: for IC50: Homo sapiens, LoVo/DX, 72 h, read-out: IC50 LoVo/DX; for RI (resistance index): RI = (IC50 for LoVo/DX)/(IC50 for LoVo)
Description: as §1, §2, §3, §4

[5] = system: BALB/3T3; assay: In vitro antiproliferative activity, SRB assay, normal fibroblasts BALB/3T3; assay type: cell-based, murine; conditions: Mus musculus, BALB/3T3; normal murine embryonic fibroblasts, 72 h, SRB, mean ± SD
Description: as §1, §2, §3, §4

Row | SMILES | IC50 ([1]; Homo sapiens, A549, 72 h) | IC50 ([2]; Homo sapiens, MCF7, 72 h) | IC50 ([3]; Homo sapiens, LoVo) | IC50 [4] | RI (resistance index) [4] | IC50 [5] | selectivity index (SI) LoVo ([3]; SI = (IC50 BALB/3T3)/(IC50 LoVo)) | times more potent than unmodified colchicine 1 ([4]; LoVo/DX line) | selectivity index (SI) MCF-7 [2] | IC50 [1] | IC50 [2] | IC50 [3] | IC50 ([4]; doxorubicin-resistant colon adenocarcinoma subline, SRB, mean ± SD)
1 | CNc1ccc2c(cc1=O)[C@@H](NC(=O)c1ccccc1)CCc1cc(OC)c(OC)c(OC)c1-2 [Compound 12] | 13 ± 1.3 nM | 13 ± 1.3 nM | 8.5 ± 0.4 nM | 99.9 ± 10 nM | 11.8 | 13 ± 3.3 nM |  |  |  |  |  |  | 
2 | CNc1ccc2c(cc1=O)[C@@H](NC(=O)c1ccccc1Cl)CCc1cc(OC)c(OC)c(OC)c1-2 [Compound 13] | 6.3 ± 3.2 nM | 9.2 ± 0.8 nM | 0.7 ± 0.1 nM | 9.6 ± 3.3 nM | 14.0 | 6.2 ± 1.6 nM | over 6 | approx. 170 times |  |  |  |  | 
3 | CNc1ccc2c(cc1=O)[C@@H](NC(=O)c1cccc(F)c1)CCc1cc(OC)c(OC)c(OC)c1-2 [Compound 14] | 10.7 ± 0.6 nM | 12.6 ± 1.3 nM | 8.6 ± 0.8 nM | 102 ± 24.9 nM | 12.0 | 12.6 ± 2.1 nM |  |  |  |  |  |  | 
4 | CNc1ccc2c(cc1=O)[C@@H](NC(=O)c1cccnc1)CCc1cc(OC)c(OC)c(OC)c1-2 [Compound 15] | 36.8 ± 12.1 nM | 13 ± 2.2 nM | 10.8 ± 1.3 nM | 832 ± 293 nM | 76.8 | 43.3 ± 29.7 nM |  |  |  |  |  |  | 
5 | CNc1ccc2c(cc1=O)[C@@H](NC(=O)c1ccncc1)CCc1cc(OC)c(OC)c(OC)c1-2 [Compound 16] | 17.3 ± 3.7 nM | 12.8 ± 0.9 nM | 10.8 ± 1.3 nM | 947 ± 260 nM | 87.4 | 52 ± 29.3 nM |  |  |  |  |  |  | 
6 | CNc1ccc2c(cc1=O)C(NS(N)(=O)=O)CCc1cc(OC)c(OC)c(OC)c1-2 (stereo not shown) [Compound 17] | 56.6 ± 14.7 nM | 10.3 ± 3.9 nM | 21.1 ± 17.5 nM | 6470 ± 264 nM | 306.0 | 100 ± 24.1 nM |  |  | ~10 and 9.8 |  |  |  | 
7 | CNc1ccc2c(cc1=O)C(NS(=O)(=O)N(C)C)CCc1cc(OC)c(OC)c(OC)c1-2 (stereo not shown) [Compound 18] | 9.3 to 15.5 nM | 9.3 to 15.5 nM | 9.3 to 15.5 nM | 540 ± 107 nM | 57.8 | 14.2 ± 13.2 nM |  |  |  | 10.6 ± 0.6 nM | 15.5 ± 1.7 nM | 9.3 ± 1.1 nM | 
8 | C=CS(=O)(=O)NC1CCc2cc(OC)c(OC)c(OC)c2-c2ccc(NC)c(=O)cc21 (stereo not shown) [Compound 19] | 11.4 ± 1.7 nM | 13 ± 4.3 nM | 8.4 ± 0.7 nM | 307 ± 145 nM | 36.7 | 8.3 ± 3.8 nM |  |  |  |  |  |  | 
9 | CNc1ccc2c(cc1=O)C(NS(=O)(=O)CCN1CCOCC1)CCc1cc(OC)c(OC)c(OC)c1-2 (stereo not shown) [Compound 20] | 800 ± 130 nM | 150 ± 25.3 nM | 268 ± 94 nM | 44400 ± 23900 nM | 165.4 | 991 ± 280 nM |  |  | 6.6 |  |  |  | 
10 | CNc1ccc2c(cc1=O)[C@@H](NS(=O)(=O)c1ccc(C(F)(F)F)cc1)CCc1cc(OC)c(OC)c(OC)c1-2 [Compound 21] | 85.5 ± 5.4 nM | 134 ± 41.5 nM | 73.5 ± 15.7 nM | 6120 ± 825 nM | 83.3 | 87.6 ± 13.5 nM |  |  |  |  |  |  | 
11 | COc1cccc2c1C(=O)c1c(O)c3c(c(O)c1C2=O)C[C@@](O)(C(=O)CO)C[C@@H]3O[C@H]1C[C@H](N)[C@H](O)[C@H](C)O1 [Doxorubicin, reference compound] | 142 ± 46 nM | 204 ± 47.8 nM | 99.4 ± 41 nM |  | 87.9 | 149 ± 127 nM |  |  |  |  |  |  | 8730 ± 2540 nM
